According to BigSolDB 2.1:

`O=C1CCc2ccc(OCCCCN3CCN(c4cccc(Cl)c4Cl)CC3)cc2N1` gave a solubility (mole fraction) (in acetone, 278.15 K) of 1.97e-05, a solubility (mole fraction) (in acetone, 283.15 K) of 2.73e-05 and a solubility (mole fraction) (in acetone, 288.15 K) of 3.6e-05. It also gave a solubility (mole fraction) (in acetone, 293.15 K) of 4.71e-05, a solubility (mole fraction) (in acetone, 298.15 K) of 5.94e-05 and a solubility (mole fraction) (in acetone, 303.15 K) of 7.32e-05. For the same compound, the solubility (mole fraction) (in acetone, 308.15 K) was 8.93e-05, the solubility (mole fraction) (in acetone, 313.15 K) was 0.00011 and the solubility (mole fraction) (in acetone, 318.15 K) was 0.000135. The solubility (mole fraction) (in isopropanol, 278.15 K) was 6.32e-06, the solubility (mole fraction) (in isopropanol, 283.15 K) was 9.1e-06 and the solubility (mole fraction) (in isopropanol, 288.15 K) was 1.22e-05. For the same compound, the solubility (mole fraction) (in isopropanol, 293.15 K) was 1.68e-05, the solubility (mole fraction) (in isopropanol, 298.15 K) was 2.25e-05 and the solubility (mole fraction) (in isopropanol, 303.15 K) was 2.94e-05. It also gave a solubility (mole fraction) (in isopropanol, 308.15 K) of 3.89e-05, a solubility (mole fraction) (in isopropanol, 313.15 K) of 5.05e-05 and a solubility (mole fraction) (in isopropanol, 318.15 K) of 6.38e-05. The solubility (mole fraction) (in n-propanol, 278.15 K) was 1.46e-05, the solubility (mole fraction) (in n-propanol, 283.15 K) was 1.93e-05 and the solubility (mole fraction) (in n-propanol, 288.15 K) was 2.57e-05. The solubility (mole fraction) (in n-propanol, 293.15 K) was 3.28e-05, the solubility (mole fraction) (in n-propanol, 298.15 K) was 4.12e-05 and the solubility (mole fraction) (in n-propanol, 303.15 K) was 5.37e-05. It also gave a solubility (mole fraction) (in n-propanol, 308.15 K) of 6.72e-05, a solubility (mole fraction) (in n-propanol, 313.15 K) of 8.32e-05 and a solubility (mole fraction) (in n-propanol, 318.15 K) of 0.000103.
